Laboratory results from patent US20240285600A1, “NOVEL MKRN1 INHIBITOR AND PHARMACEUTICAL COMPOSITION FOR PREVENTING OR TREATING OBESITY OR FATTY LIVER COMPRISING THE SAME” (UIF (University Industry Foundation), Yosei University, priority 2023, published 2024).

Tests used:
HepG2 cells = assay: Fat accumulation in HepG2 cells treated with AMPK activator and PAOA; format: cell-based; conditions: PAOA 1 mM, FIG. 8
Description: Specifically, HepG2 cells were cultured, and then treated with various types of AMPK activators. Thereafter, the cells were treated with palmitic acid and oleic acid (PAOA) at a concentration of 1 mM, and further cultured, and the degree of fat accumulation was then confirmed.

[1] = tested on: wild-type mice fed an HFHF diet; assay: Anti-obesity/anti-steatohepatitis effect in mice fed an HFHF diet, ebastine after 4 weeks; format: in vivo; conditions: HFHF diet 20 weeks
Description: (§1) Body weights were measured once every 3 to 4 days for 20 weeks, and the liver was isolated at the end of the experiment. Thereafter, a histological examination was performed.

[2] = tested on: wild-type mice fed a CDAHFD; assay: Anti-steatohepatitis effect in mice fed a CDAHFD, ebastine after 2 weeks; format: in vivo; conditions: CDAHFD 6 weeks, vs control
Description: Body weights were measured once every 3 to 4 days for 6 weeks, and the liver was isolated at the end of the experiment. Thereafter, a histological examination was performed.

[3] = tested on: wild-type mice fed an HFHF diet; assay: Therapeutic effect on steatohepatitis in mice fed an HFHF diet, ebastine after 16 weeks; format: in vivo; conditions: HFHF diet 20 weeks
Description: as §1

AMPK = conditions: HepG2 cells, cultured for 16 or 24 hours, FIG. 9

Structure (SMILES): CC(C)(C)c1ccc(C(=O)CCCN2CCC(OC(c3ccccc3)c3ccccc3)CC2)cc1 [ebastine]
- degree of fat accumulation (HepG2 cells): effective in suppressing fat accumulation
- weight of the liver ([1]; ebastine 5 mg/kg after 4 weeks, FIG. 13C): lowest
- body weight gain ([1]; ebastine 1 and 5 mg/kg after 4 weeks, vs control, FIG. 13A): less
- liver shape observed with the naked eye ([1]; ebastine after 4 weeks, FIG. 13B): close to a normal shape
- expression level of MKRN1 in the liver (immunohistochemistry) ([1]; ebastine after 4 weeks, vs control): decreased
- fat accumulation in the liver (H&E) ([1]; ebastine after 4 weeks, vs control, FIG. 13E): almost no fat accumulated in the liver
- liver fibrosis (Sirius Red) ([1]; ebastine after 4 weeks, vs control, FIG. 13F): did not progress
- liver inflammation (F4/80 IHC) ([1]; ebastine after 4 weeks, vs control, FIG. 13G): suppressed
- body weight ([2]; ebastine 1 and 5 mg/kg after 2 weeks, FIG. 14A): no significant difference
- liver condition observed with the naked eye ([2]; ebastine after 2 weeks, FIG. 14B): appeared similar
- liver weight ([2]; ebastine after 2 weeks, FIG. 14C): no difference
- expression level of MKRN1 in the liver (immunohistochemistry) ([2]; ebastine after 2 weeks, FIG. 14D): decreased
- fat accumulation in the liver (H&E) ([2]; ebastine after 2 weeks, FIG. 14E): almost no fat accumulated in the liver
- liver fibrosis (Sirius Red) ([2]; ebastine after 2 weeks, FIG. 14F): did not progress
- liver inflammation (F4/80 IHC) ([2]; ebastine after 2 weeks, FIG. 14G): suppressed
- weight of the liver ([3]; ebastine 5 mg/kg after 16 weeks, FIG. 15C): lowest
- body weight change ([3]; ebastine 1 and 5 mg/kg after 16 weeks (for 4 weeks), vs control, FIG. 15A): no difference
- liver shape observed with the naked eye ([3]; ebastine after 16 weeks, FIG. 15B): close to a normal shape
- expression level of MKRN1 in the liver (immunohistochemistry) ([3]; ebastine after 16 weeks, vs control, FIG. 15D): decreased
- fat accumulation in the liver (H&E) ([3]; ebastine after 16 weeks, vs control, FIG. 15E): almost no fat accumulated in the liver
- liver fibrosis (Sirius Red) ([3]; ebastine after 16 weeks, vs control, FIG. 15F): did not progress
- liver inflammation (F4/80 IHC) ([3]; ebastine after 16 weeks, vs control, FIG. 15G): suppressed
- expression levels of fibrosis- and inflammation-related genes in the liver (RT-PCR) ([3]; ebastine after 16 weeks, vs control, FIG. 15H): generally suppressed
- amount of AMPK (AMPK): increased
- amount of phosphorylated AMPK (AMPK): increased
